Assay results: EP1555944B1, “PACKAGED ANTIMICROBIAL MEDICAL DEVICE AND METHOD OF PREPARING SAME” (ETHICON, INC., priority 2002, dated 2004)

Columns and labels:
[1] = Triclosan distribution between suture and package components after sterilization; format: physicochemical; settings: size 5-0 suture, 2% triclosan coating composition, about 23.2 µg before sterilization
Procedure: The coated sutures each were placed in a package as described herein above including a containment component, i.e., a tray, for holding the suture and a paper component for covering the suture in the tray. The suture in the containment component and packaging were sterilized as described herein above. After sterilization, it was determined that that suture contained about 5.5 µg triclosan, the tray about 0.2 µg triclosan, the paper component about 2.3 µg triclosan, and the package heat seal coating about 1.5 µg triclosan. Triclosan not recovered after sterilization was about 13.7 µg triclosan. Fig. 1 indicates triclosan transfer from the antimicrobial suture to the tray of the package as a function of time at 55°C.

S. aureus = settings: suitable growth medium; cited from earlier work

Oc1cc(Cl)ccc1Oc1ccc(Cl)cc1Cl [2,4,4'-trichloro-2'-hydroxydiphenyl ether]
Triclosan not recovered after sterilization [1]: about 13.7 µg | triclosan on package heat seal coating after sterilization [1]: about 1.5 µg | triclosan on paper component after sterilization [1]: about 2.3 µg | triclosan on suture after sterilization [1]: about 5.5 µg | triclosan on tray after sterilization [1]: about 0.2 µg | minimum inhibitory concentration (MIC) (S. aureus): 0.01 ppm
